Laboratory results published in patent publication US20040266718A1, “Inhibition of specific histone deacetylase isoforms” (priority 2001, published 2004).
d = 2'-deoxy (DNA); m = 2'-O-methyl

Experiments:
[1] = tested on: A549; experiment: cell growth analysis (trypan blue cell count), A549; format: cell-based, human; settings: 50 nM, 72 hours
Experimental: (§1) Briefly, human A549 and/or T24 human bladder carcinoma cells were seeded in 10 cm tissue culture dishes one day prior to oligonucleotide treatment. The cell lines were obtained from the American Type Culture Collection (ATCC) (Manassas, Va.) and were grown under the recommended culture conditions. Before the addition of the oligonucleotides, cells were washed with PBS (phosphate buffered saline). Next, lipofectin transfection reagent (GIBCO BRL Mississauga, Ontario, Calif.), at a concentration of 6.25 μg/ml, was added to serum free OPTIMEM medium (GIBCO BRL, Rockville, Md.), which was then added to the cells. The oligonucleotides to be screened were then added directly to the cells (i.e., one oligonucleotide per plate of cells). Mismatched oligonucleotides were used as controls. The same concentration of oligonucleotide (e.g., 50 nM) was used per plate of cells for each oligonucleotide tested.
(§2) In order to determine the effect of HDAC OSDNs on cell growth and cell death through apoptosis, A549 or T24 cells, MDAmb231 cells, and HMEC cells (ATCC, Manassas, Va.) were treated with HDAC OSDNs as previously described.
(§3) Cells were harvested and cell numbers counted by trypan blue exclusion using a hemocytometer. Percentage of inhibition was calculated as (100—AS cell numbers/control cell numbers)%.

[2] = tested on: T24; experiment: cell growth analysis (trypan blue cell count), T24; format: cell-based, human; settings: 50 nM, 72 hours
Experimental: as §1, §2, §3

[3] = tested on: MDAmb231; experiment: cell growth analysis (trypan blue cell count), MDAmb231; format: cell-based, human; settings: 50 nM, 72 hours
Experimental: as §1, §2, §3

[4] = tested on: A549; experiment: apoptosis, Cell Death Detection ELISA, A549; format: cell-based, human; settings: OSDN
Experimental: as §2
(§4) For the apoptosis study, cells were analyzed using the Cell Death Detection ELISA^Plus kit (Roche Diagnostic GmBH, Mannheim, Germany) according to the manufacturer's directions. Typically, 10,000 cells were plated in 96-well tissue culture dishes for 2 hours before harvest and lysis. Each sample was analyzed in duplicate. ELISA reading was done using a MR700 plate reader (DYNEX Technology, Ashford, Middlesex, England) at 410 nm. The reference was set at 490 nm.

[5] = tested on: T24; experiment: apoptosis, Cell Death Detection ELISA, T24; format: cell-based, human; settings: OSDN
Experimental: as §2, §4

[6] = tested on: MDAmb231; experiment: apoptosis, Cell Death Detection ELISA, MDAmb231; format: cell-based, human; settings: OSDN
Experimental: as §2, §4

[7] = tested on: HMEC; experiment: apoptosis, Cell Death Detection ELISA, HMEC; format: cell-based, human; settings: OSDN, normal cells
Experimental: as §2, §4

[8] = tested on: human HDAC-4 RNA; experiment: antisense screen by Northern blot in T24 cells, HDAC-4; format: cell-based; settings: screened as above (T24 cells, 100 nM, 24 hours)
Experimental: Seventeen phosphorothioate ODNs containing sequences complementary to the 5′ or 3′ UTR of the human HDAC-4 gene (GenBank Accession No. AB006626) were screened as above. […] HDAC-4 MM1 and MM2 oligonucleotides were created as controls; compared to the antisense oligonucleotides, they each contain a 6-base mismatch.
as §1
Cells were harvested, and total RNAs were analyzed by Northern blot analysis. Briefly, total RNA was extracted using RNeasy miniprep columns (QIAGEN). […]

[9] = tested on: p21 protein in A549 cells; experiment: Western blot of p21 protein in A549 cells; format: cell-based, human; settings: FIG. 15
[10] = tested on: human HDAC-7 RNA; experiment: antisense screen by Northern blot in T24 cells, HDAC-7; format: cell-based; settings: screened as above (T24 cells, 100 nM, 24 hours)
Experimental: Eighteen phosphorothioate ODNs containing sequences complementary to the 5′ or 3′ untranslated regions of the human HDAC-7 gene (GenBank Accession No. AF239243) were screened as above.
as §1
Cells were harvested, and total RNAs were analyzed by Northern blot analysis. Briefly, total RNA was extracted using RNeasy miniprep columns (QIAGEN). Ten to twenty μg of total RNA was run on a formaldehyde-containing 1% agarose gel with 0.5 M sodium phosphate (pH 7.0) as the buffer system. […]

Row | Substance | Growth Inhibition (AS vs. MM) A549 [1] | Growth Inhibition (AS vs. MM) T24 [2] | Growth Inhibition (AS vs. MM) MDAmb231 [3] | Apoptosis After 48 Hour Treatment A549 [4] | Apoptosis After 48 Hour Treatment T24 [5] | Apoptosis After 48 Hour Treatment MDAmb231 [6] | Apoptosis After 48 Hour Treatment HMEC [7] | antisense activity to human HDAC-4 (RNA expression, Northern blot) [8] | expression of the p21 protein [9] | antisense activity to human HDAC-7 (RNA expression, Northern blot) [10]
1 | HDAC-4 AS1: antisense oligonucleotide to human HDAC4, 5-GCTGCCTGCCGTGCCCACCC-3′ (SEQ ID NO:24) (sugars from the 5' end m4 d12 m4, all phosphorothioate, methylation of C and T or U not given here) | +++ (>75% inhibition) | ++ (50-75% inhibition) | ++ (50-75% inhibition) | +++ (5-8X fold) | + (2-3X fold) | ++ (3-5X fold) | − (< = 2x fold over non-specific background) | antisense activity | induces the expression of the p21 protein | –
2 | HDAC-7 AS: antisense oligonucleotide to human HDAC7, 5′-CTTCAGCCAGGATGCCCACA-3′ (SEQ ID NO:31) (sugars from the 5' end m4 d12 m4, all phosphorothioate, methylation of C and T or U not given here) | – | – | – | – | – | – | – | – | – | antisense activity
